US20250281464A1, “TREATMENT OF PATHOGENIC NEISSERIA SP. INFECTION WITH TRIAZOLE ANTIFUNGAL AGENTS” (Virginia Tech Intellectual Properties, Inc., priority 2022, published 2025)
In brackets after ≈: the same amount, converted by molar mass. Where two headings read alike, the source gives them in different places.

Tests used:
L. gasseri = test: MIC against commensal vaginal Lactobacillus strains; format: cell-based, Lactobacillus gasseri; conditions: for MIC: Lactobacillus gasseri
Source text: (§1) N. gonorrhoeae pathogenesis greatly depends on colonization of the reproductive tract. One of the natural barriers of such colonization is an intact healthy microbiome. Species of lactobacilli present in the genitourinary tract play a significant role in hindering colonization by Neisseria(1).
(§2) A healthy vaginal microbiome that is dominated by Lactobacillus spp. is less susceptible to N. gonorrhoeae infection and other sexually transmitted diseases (STDs). […] We tested the activity of azoles against important members of healthy vaginal microbiota that inhibit N. gonorrhoeae colonization.

Escherichia coli = test: MIC against normal gut microbiota; format: cell-based; conditions: Escherichia coli (1 strain)
Source text: (§3) Disrupting the intestinal microbiota using broad-spectrum antimicrobial therapy increases the susceptibility of hosts to C. difficile colonization.

Lactobacillus brevis = test: MIC against normal gut microbiota; format: cell-based; conditions: Lactobacillus brevis (1 strain)
Source text: as §3

Lactobacillus casei = test: MIC against normal gut microbiota; format: cell-based; conditions: Lactobacillus casei (1 strain)
Source text: as §3

[1] = MIC against normal gut microbiota; format: cell-based
Source text: as §3

Lactobacillus rhamnosus = test: MIC against normal gut microbiota; format: cell-based; conditions: Lactobacillus rhamnosus (1 strain)
Source text: as §3

Staphylococcus aureus = test: MIC against normal gut microbiota; format: cell-based; conditions: Staphylococcus aureus (1 strain)
Source text: as §3

N. gonorrhoeae isolates = test: MIC against panel of N. gonorrhoeae clinical isolates; format: cell-based, Neisseria gonorrhoeae; conditions: for MIC50 / MIC90: Neisseria gonorrhoeae; for MIC50: read-out: MIC50; for MIC90: read-out: MIC90
N. gonorrhoeae [2] = test: Post-antibiotic effect (PAE) against N. gonorrhoeae; format: cell-based, Neisseria gonorrhoeae; conditions: 1 h exposure at 10×MIC
Source text: Determining the PAE of a new antimicrobial is an important step for dosing and has clinical importance.

L. jensenii = test: MIC against commensal vaginal Lactobacillus strains; format: cell-based, Lactobacillus jensenii; conditions: for MIC: Lactobacillus jensenii
Source text: as §1, §2

N. lactamica = test: MIC against Neisseria spp.; format: cell-based; conditions: N. lactamica (1 strain)
Source text: (§4) Intrigued by the specificity and potent activity of azoles against N. gonorrhoeae, we evaluated the extent of the azoles' antibacterial activity against other Neisseria species (Table 8).

N. mucosa = test: MIC against Neisseria spp.; format: cell-based; conditions: N. mucosa (1 strain)
Source text: as §4

N. flavescens = test: MIC against Neisseria spp.; format: cell-based; conditions: N. flavescens (1 strain)
Source text: as §4

N. gonorrhoeae [3] = test: Drug library screen against N. gonorrhoeae; format: cell-based, Neisseria gonorrhoeae; conditions: Johns Hopkins Clinical Compounds Library, MCE FDA-Approved Drug Library, Pharmakon library; killing in clinical range
Source text: To identify drugs capable of killing Neisseria gonorrhoeae, the Johns Hopkins Clinical Compounds Library (1514), the MCE FDA-Approved Drug Library (2441), and the Pharmakon library (1600) were screened against N. gonorrhoeae. Positive hits that are capable of killing Neisseria gonorrhoeae in clinical range were identified (itraconazole, ravuconazole and isavuconazole).

N. gonorrhoeae [4] = test: Female mouse model of N. gonorrhoeae genital tract infection; format: in vivo; conditions: N. gonorrhoeae FA1090, low dose 100 mg/kg orally
Experimental: FIG. 1—Efficacy of Ravuconazole one oral dose in a mouse model against N. gonorrhoeae FA1090. N. gonorrhoeae burden (average±standard deviation log 10 CFU/mL) after treatment with a single dose of ravuconazole (40 mg/kg) (fosravuconazole/E-1224 Prodrug) via oral gavage. As a negative control, mice (n=8) were administered the vehicle (water), As a positive control, a group of mice received a single intraperitoneal dose of ceftriaxone (15 mg/kg in water). Vaginal swabs were collected daily and cultured to determine the number of viable bacteria. The limit of detection was 10 CFU/mL. The data were analyzed via a two-way ANOVA followed by Dunnett's test for multiple comparisons. Asterisks indicate a statistical significant difference between mice treated with either ravuconazole or ceftriaxone as compared to the vehicle-treated mice.
FIG. 2A-2C—Efficacy of Ravuconazole one oral dose in a mouse model against drug-resistant strains. […] N. gonorrhoeae burden (average±standard deviation log 10 CFU/mL) after treatment with a single dose of ravuconazole (160 mg/kg) (fosravuconazole/E-1224 Prodrug) via oral gavage. […] The data were analyzed via a two-way ANOVA followed by Dunnett's test for multiple comparisons. […]
FIG. 3—Efficacy of 3 doses of isavuconazole against the vaginal burden of N. gonorrhoeae. […] The data were analyzed via a two-way ANOVA followed by Dunnett's test for multiple comparisons. […]

N. meingitidis = test: MIC against Neisseria spp.; format: cell-based, Neisseria meningitidis; conditions: N. meingitidis (5 strains)
[5] = Table 1, 104 N. gonorrhoeae isolates
[6] = Table 3, 103 N. gonorrhoeae isolates with different resistance profiles

MIC (L. gasseri; L. gasseri HM-407): > 256 µg/mL
MIC (L. gasseri; L. gasseri HM-642): > 256 µg/mL
MIC (L. gasseri; L. gasseri HM-644): > 256 µg/mL
MIC (L. gasseri; L. gasseri HM-647): > 256 µg/mL
MIC Range (L. gasseri; Table 6, L. gasseri (4 strains)): ≥256 µg/mL
MIC50 (N. gonorrhoeae isolates; [5]): 0.5 µg/mL (≈ 1.14 µM)
MIC90 (N. gonorrhoeae isolates; [5]): 1 µg/mL (≈ 2.29 µM)
MIC50 (N. gonorrhoeae isolates; [6]): 0.5 µg/mL (≈ 1.14 µM)
MIC90 (N. gonorrhoeae isolates; [6]): 1 µg/mL (≈ 2.29 µM)
MIC Range (N. gonorrhoeae isolates; [5]): 0.015 to 2 µg/mL
MIC Range (N. gonorrhoeae isolates; [6]): 0.015 to 4 µg/mL
MIC (L. jensenii; L. jensenii HM-105): > 256 µg/mL
MIC (L. jensenii; L. jensenii HM-372): > 256 µg/mL
MIC (L. jensenii; L. jensenii HM-374): > 256 µg/mL
MIC (L. jensenii; L. jensenii HM-639): > 256 µg/mL
MIC (L. jensenii; L. jensenii HM-640): > 256 µg/mL
MIC (L. jensenii; L. jensenii HM-645): > 256 µg/mL
MIC (L. jensenii; L. jensenii HM-646): > 256 µg/mL
MIC Range (L. jensenii; Table 6, L. jensenii (7 strains)): ≥256 µg/mL
MIC Range (N. lactamica): 1 µg/mL (≈ 2.29 µM)
MIC Range (N. mucosa): 8 µg/mL (≈ 18.3 µM)
MIC Range (N. flavescens): 16 µg/mL (≈ 36.6 µM)
MIC Range (N. meingitidis): 0.25 to 0.5 µg/mL
SMILES: C[C@@H](c1nc(-c2ccc(C#N)cc2)cs1)[C@](O)(Cn1cncn1)c1cc(F)ccc1F [Isavuconazole]
MIC Range (Escherichia coli): >256 µg/mL
MIC Range (Lactobacillus brevis): >256 µg/mL
MIC Range (Lactobacillus casei): >256 µg/mL
MIC Range ([1]; Bacteroides adolescentis (2 strains)): >256 µg/mL
MIC Range ([1]; Bacteroides breve (2 strains)): >256 µg/mL
MIC Range ([1]; Bacteroides longum (2 strains)): >256 µg/mL
MIC Range (Lactobacillus rhamnosus): >256 µg/mL
MIC Range (Staphylococcus aureus): >256 µg/mL
PAE (N. gonorrhoeae [2]; strain FA 1090): 10 h
PAE (N. gonorrhoeae [2]; strain WHO P): 10 h
PAE (N. gonorrhoeae [2]; strain WHO Y): 10 h
screening outcome (N. gonorrhoeae [3]): Positive hits
infected mice in which the infection was cleared (N. gonorrhoeae [4]; second day): 50%
infected mice in which the infection was cleared (N. gonorrhoeae [4]; third day of treatment): 100%
